Test results published in the supplement of paper PMC10878532, “Sperm Toolbox—A selection of small molecules to study human spermatozoa” (PLOS ONE, 2024).
Where a name gives a salt, the structure may show the parent alone.

Assays:
HeLa [1] = test: HeLa toxicity: nuclei-count effect normalised to DMSO (DMSO = 0); higher = more features changed / larger toxic effect; conditions: incubation time: 24h incubation
HeLa [2] = test: Cell Painting percent induction (share of features beyond 2 z-scores vs DMSO); higher = more features changed / larger toxic effect; extreme values may be limits of the assay; conditions: incubation time: 24h incubation
human spermatozoa [3] = test: viability fold change, 1 - (PI-positive fraction / DMSO median); higher = more of the measured sperm population than DMSO, for viability, fewer PI-positive (dead) cells than DMSO; conditions: incubation time: 3h, non-capacitating
human spermatozoa [4] = test: total motile sperm, percent change vs DMSO (non-capacitating); higher = more of the measured sperm population than DMSO, for viability, fewer PI-positive (dead) cells than DMSO
human spermatozoa [5] = test: hyperactivated motile sperm, percent change vs DMSO (capacitating); higher = more of the measured sperm population than DMSO, for viability, fewer PI-positive (dead) cells than DMSO; conditions: incubation time: 30min incubation
human spermatozoa [6] = test: progressively motile sperm, percent change vs DMSO (capacitating); higher = more of the measured sperm population than DMSO, for viability, fewer PI-positive (dead) cells than DMSO; conditions: incubation time: 30min incubation
human spermatozoa [7] = test: change in acrosome-reacted (PNA+) sperm vs DMSO, no agonist (capacitating); higher = more of the measured sperm population than DMSO, for viability, fewer PI-positive (dead) cells than DMSO; conditions: incubation time: 3h
HepG2 = HepG2 toxicity (resazurin), effect normalised to DMSO (DMSO = 0); higher = more features changed / larger toxic effect; conditions: incubation time: 70h incubation
human spermatozoa [8] = test: progressively motile sperm, percent change vs DMSO (non-capacitating); higher = more of the measured sperm population than DMSO, for viability, fewer PI-positive (dead) cells than DMSO; extreme values may be limits of the assay
human spermatozoa [9] = test: acrosome-reacted (PNA+) sperm after agonist cocktail, percent change vs DMSO (capacitating); higher = more of the measured sperm population than DMSO, for viability, fewer PI-positive (dead) cells than DMSO; conditions: incubation time: 3h, capacitating + agonist cocktail 1h
[10] = incubation time: 10min incubation, 9.99 µM
[11] = incubation time: 10min incubation, 29.9 µM
[12] = incubation time: 3h incubation, 9.99 µM
[13] = incubation time: 3h incubation, 29.9 µM
[14] = incubation time: 6h incubation, 9.99 µM
[15] = incubation time: 6h incubation, 29.9 µM
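Wherever progressively motile sperm, percent change vs DMSO (non-capacitating) is given: pooled live human sperm from at least 3 donors, tracked by automated microscopy in 0.5 s time-lapse movies, compounds at 10 and 30 µM, versus median of 16 DMSO wells per plate.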
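Wherever total motile sperm, percent change vs DMSO (non-capacitating) is given: sperm pooled from at least 3 donors, tracked in 0.5 s time-lapse movies by automated microscopy after 10 min, 3 h or 6 h with compound at 10 or 30 µM.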

| SMILES | HeLa toxicity: nuclei-count effect normalised (HeLa [1]; 9.99 µM) [%] | HeLa toxicity: nuclei-count effect normalised (HeLa [1]; 29.9 µM) [%] | Cell Painting percent induction (HeLa [2]; 9.99 µM) [%] | Cell Painting percent induction (HeLa [2]; 29.9 µM) [%] | viability fold change (human spermatozoa [3]; 9.99 µM) | viability fold change (human spermatozoa [3]; 29.9 µM) | total motile sperm (human spermatozoa [4]; [10]) [%] | total motile sperm (human spermatozoa [4]; [11]) [%] | total motile sperm (human spermatozoa [4]; [12]) [%] | total motile sperm (human spermatozoa [4]; [13]) [%] | total motile sperm (human spermatozoa [4]; [14]) [%] | total motile sperm (human spermatozoa [4]; [15]) [%] | hyperactivated motile sperm (human spermatozoa [5]; 9.99 µM) [%] | hyperactivated motile sperm (human spermatozoa [5]; 29.9 µM) [%] | progressively motile sperm (human spermatozoa [6]; 9.99 µM) [%] | progressively motile sperm (human spermatozoa [6]; 29.9 µM) [%] | change in acrosome-reacted (human spermatozoa [7]; 9.99 µM) [%] | change in acrosome-reacted (human spermatozoa [7]; 29.9 µM) [%] | HepG2 toxicity (HepG2; 10 µM) [%] | HepG2 toxicity (HepG2; 30 µM) [%] | progressively motile sperm (human spermatozoa [8]; [10]) [%] | progressively motile sperm (human spermatozoa [8]; [11]) [%] | progressively motile sperm (human spermatozoa [8]; [12]) [%] | progressively motile sperm (human spermatozoa [8]; [13]) [%] | progressively motile sperm (human spermatozoa [8]; [14]) [%] | progressively motile sperm (human spermatozoa [8]; [15]) [%] | acrosome-reacted (human spermatozoa [9]; 9.99 µM) [%] | acrosome-reacted (human spermatozoa [9]; 29.9 µM) [%] |
| --- | --- | --- | --- | --- | --- | --- | --- | --- | --- | --- | --- | --- | --- | --- | --- | --- | --- | --- | --- | --- | --- | --- | --- | --- | --- | --- | --- | --- |
| CN(C)CCCn1cc(C2=C(c3c[nH]c4ccccc34)C(=O)NC2=O)c2ccccc21 | -5.34 | 3.61 | 0.072 | 0.072 | -0.204 | -0.45 | 1.63 | 0.0178 | -1.97 | -13.1 | 1.29 | -6.7 | 11.8 | -3.96 | 4 | 5.48 | 0.106 | 0.127 | -5.59 | 8.33 | 3.74 | 4.75 | 9.83 | -7.22 | 23.9 | -4.1 | -2.39 | -7.18 |
| N=C(N)Nc1nc2ccccc2[nH]1 [2-Guanidinobenzimidazole] | 1.07 | -4.21 | 0 | 0.036 | -1.37 | -0.849 | 0.879 | -2.57 | 1.34 | -1.87 | 1.24 | -6.01 | -8.85 | -1.69 | 0.502 | 7.48 | – | – | 7.28 | -2.48 | 3.14 | 0.263 | 13 | 14 | 18.7 | 6.54 | -0.796 | -2.33 |
| CC(=O)N1CCC(C(=O)N(CCCN2CCN(Cc3ccc(F)cc3)CC2)c2ccc(C)c(Cl)c2)CC1 [B07 hydrochloride] | -8.22 | -2.4 | 0 | 0 | -0.0249 | -0.378 | -3.45 | -1.62 | -0.778 | -4.4 | -2.31 | -8.75 | 4.68 | -29.9 | 2.3 | 5.54 | -0.33 | -0.655 | – | – | -0.531 | -2.62 | 3.74 | -2.22 | 13.9 | -0.382 | -7.75 | -16.6 |
| CC(C)(C)c1ccc(S(=O)(=O)Nc2ccc(OC(F)(F)F)c(F)c2-c2ccc(C(=O)O)c3ncccc23)cc1F [CCR6 inhibitor] | – | – | – | – | -0.213 | -0.279 | 2.36 | 5.45 | -5.06 | -0.0893 | -5.81 | -4.71 | 12.5 | -21 | 3.94 | 10.4 | 0.627 | 0.716 | 2.54 | -7.66 | 4.23 | 5.16 | 7.86 | 2.54 | 7.11 | -7.05 | 4.58 | -1.79 |
| CO[C@H]1[C@@H](OC)C[C@H](C)[C@@H](OC)C2=CC(=O)C=C(NC(=O)/C(C)=C/C=C/[C@H](OC)[C@@H](OC(N)=O)/C(C)=C/[C@@H]1C)C2=O [Herbimycin a] | 23.2 | 37.9 | 0.216 | 0 | -1.59 | -1.04 | 7.08 | 3.19 | -13.6 | -85.1 | -11.7 | -85 | -22.2 | -70.4 | 3.33 | -50.9 | – | – | 101 | 103 | 11.6 | -9.27 | -37.6 | -100 | -46.3 | -100 | – | – |
| CCS(=O)(=O)Nc1ccc2c(c1)/C(=C(/Nc1ccc(CN3CCCCC3)cc1)c1ccccc1)C(=O)N2 [Hesperadin hydrochloride] | 84.4 | 96.7 | 19.1 | 29.9 | -0.123 | -0.0637 | -7.06 | -8.13 | -15.5 | -16.9 | -15.3 | -19 | -68.7 | -76 | -13.4 | -15.1 | 0.15 | 1.01 | – | – | -47.3 | -48.7 | -44.8 | -57.8 | -44.4 | -55.4 | -34.6 | -37.5 |
| CCCCCCOC(=O)[C@]1(O)C[C@@H]2O[C@@]1(C)n1c3ccccc3c3c4c(c5c6ccccc6n2c5c31)C(=O)NC4 [KT 5720] | -2.2 | 9.55 | 0 | 0.072 | -0.0644 | -0.13 | -0.664 | -5.21 | 5.89 | -0.934 | 5.3 | 0.422 | 5.63 | -20.1 | 2.73 | -4.6 | 1.66 | 0.54 | – | – | -3.28 | -15.1 | 16.6 | 6.24 | 29.8 | 17.9 | 0.89 | 0.941 |
| NC(=O)c1cccnc1 [Nicotinamid] | – | – | – | – | -0.835 | -0.522 | 0.928 | 6.07 | -8.41 | -0.358 | -0.499 | 0.662 | 16 | 5.44 | 3.35 | 13.2 | – | – | – | – | 15.4 | 14.2 | -10.7 | 3.29 | 0.762 | -3.22 | – | – |
| C[C@@H]1O[C@@H](O[C@H]2C[C@@H](O)[C@]3(CO)[C@H]4[C@H](O)C[C@]5(C)[C@@H](C6=CC(=O)OC6)CC[C@]5(O)[C@@H]4CC[C@]3(O)C2)[C@H](O)[C@H](O)[C@H]1O [Ouabain] | 72.1 | 70.1 | 0.54 | 0.324 | – | – | – | – | – | – | – | – | – | – | – | – | – | – | 94.6 | 93.2 | – | – | – | – | – | – | – | – |
| c1cnc2c(c1)ccc1cccnc12 [Phenanthroline] | 46 | 43 | 1.08 | 1.15 | 0.0432 | -0.258 | -2.32 | -4.26 | 3.46 | -8.46 | -1.8 | -11.3 | 18.4 | 17.2 | 10.3 | 16.3 | 0.27 | 0.435 | – | – | -0.0696 | -0.36 | 1.8 | -21.2 | -1.34 | -23.3 | 8.37 | 9.76 |
